Holding throughout (assay type): in vivo
The subject of data set [1] is Yellow Fever Mosquito (Aedes aegypti, AEDSAE) ("YFM"). The note with it: about 1 day-old larvae, 4000 ppm master solution diluted, 3 days, room temperature. The method, boiled down: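 Compounds from 4000 ppm DMSO master plates, diluted in 90:10 water:acetone, dispensed into 96-well plates, six replicates. About 1-day-old larvae added in liver-powder water. Wells covered, held 3 days at room temperature, then scored for mortality.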

In data set [2] the test system is Green Peach Aphid (Myzus persicae, MYZUPE) ("GPA"). In words: Bioassays on Green Peach Aphid (GPA), cabbage seedling foliar spray. The note with it: 72 h, 200 ppm foliar spray on cabbage seedlings, three days, Abbott corrected % control, read-out: GPA % Control (or Mortality) rating. Here is the method: Certain molecules disclosed in this document were tested against GPA using procedures described in the following example. In the reporting of the results, the “GPA Rating Table” was used (See Table Section).
Cabbage seedlings grown in 3-inch pots, with 2-3 small (3-5 cm) true leaves, were used as test substrate. The seedlings were infested with 20-50 GPA (wingless adult and nymph stages) one day prior to chemical application. Four pots with individual seedlings were used for each treatment. Test compounds (2 mg) were dissolved in 2 mL of acetone/methanol (1:1) solvent, forming stock solutions of 1000 ppm test compound. The stock solutions were diluted 5× with 0.025% Tween 20 in water to obtain the solution at 200 ppm test compound. A hand-held aspirator-type sprayer was used for spraying a solution to both sides of […] leaves until runoff. Reference plants (solvent check) were sprayed with the diluent only containing 20% by volume of acetone/methanol (1:1) solvent. Treated plants were held in a holding room for three days at approximately 25° C. and ambient relative humidity (RH) prior to grading. Evaluation was conducted by counting the number of live aphids per plant under a microscope. Percent Control was measured by using Abbott's correction formula (W. S. Abbott, “A Method of Computing the Effectiveness of an Insecticide” J. Econ. Entomol. 18 (1925), pp. 265-267) as follows. Corrected % Control=100*(X−Y)/X • where • X=No. of live aphids on solvent check plants and • Y=No. of live aphids on treated plants

For data set [3], the system named is Cabbage Looper (Trichoplusia ni, TRIPNI) ("CL"). In words: Bioassays on Cabbage Looper (CL), 128-well diet tray assay. The settings on record: Trichoplusia ni, 168 h, read-out: CL % Control (or Mortality) rating. The method, boiled down: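 Second instar larvae (one to five per well) placed on artificial diet treated with 50 μg/cm^2 compound in acetone-water, eight wells per compound. Held at 25° C, 14:10 light-dark for five to seven days; percent mortality averaged across wells.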

The subject of data set [4] is Beet Armyworm (Spodoptera exigua, LAPHEG) ("BAW"). In words: Bioassays on Beet Armyworm (BAW), 128-well diet tray assay. The settings on record: Spodoptera exigua, 168 h; second instar BAW larvae, 50 μg/cm^2 on artificial diet, five to seven days, 25° C.; read-out: BAW % Control (or Mortality) rating. The method, boiled down: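 Second-instar larvae, one to five per well, were placed on artificial diet surface-treated with 50 μg/cm^2 compound in 90:10 acetone-water and dried, eight wells per compound. Trays were held at 25° C, 14:10 light-dark, for five to seven days. Percent mortality per well was averaged over the eight wells.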

A word on the mortality: it is the percentage killed.

As to `CCc1ccccc1-c1cccc(C(=O)Nc2ccc(-c3ncn(-c4ccc(OC(F)(F)F)cc4)n3)cc2)c1` [F8, 2′-Ethyl-N-(4-(1-(4-(trifluoromethoxy)phenyl)-1H-1,2,4-triazol-3-yl)phenyl)-[1,1′-biphenyl]-3-carboxamide], the “YFM % Control (or Mortality) rating” value in data set [1] was “B (More than 0-Less than 80)”. The mortality at 200 ppm in data set [2] is 0 to 80%. For the same compound, the mortality at 50 µg/cm2 in data set [3] and in data set [4] was 50 to 100% in each case.
Regarding `Cc1cccc(C)c1-c1cccc(C(=O)Nc2ccc(-c3ncn(-c4ccc(OC(F)(F)F)cc4)n3)cc2)c1` [F12, 2′,6′-Dimethyl-N-(4-(1-(4-(trifluoromethoxy)phenyl)-1H-1,2,4-triazol-3-yl)phenyl)-[1,1′-biphenyl]-3-carboxamide], the “YFM % Control (or Mortality) rating” value in data set [1] is on record as “A (80-100)”. In addition, the mortality at 200 ppm in data set [2] lay within 0 to 80%. Further, the mortality at 50 µg/cm2 in data set [3] and in data set [4] was 50 to 100% each time.
Regarding `Cc1c(C(=O)Nc2ccc(-c3ncn(-c4ccc(OC(F)(F)F)cc4)n3)cc2)cccc1-c1ccccc1` [F14, 2-Methyl-N-(4-(1-(4-(trifluoromethoxy)phenyl)-1H-1,2,4-triazol-3-yl)phenyl)-[1,1′-biphenyl]-3-carboxamide], in data set [1], the “YFM % Control (or Mortality) rating” value is recorded as “D (No activity noticed in this bioassay)”. Moreover, in data set [2], the mortality at 200 ppm fell in the range of 0 to 80%. Besides, the mortality at 50 µg/cm2 in data set [3] and in data set [4] was 50 to 100% throughout.
Take `O=C(Nc1ccc(-c2ncn(-c3ccc(OC(F)(F)F)cc3)n2)cc1)c1cc(-c2ccccc2)ccc1F` [F48, 4-Fluoro-N-(4-(1-(4-(trifluoromethoxy)phenyl)-1H-1,2,4-triazol-3-yl)phenyl)-[1,1′-biphenyl]-3-carboxamide]: the “YFM % Control (or Mortality) rating” value in data set [1] is “D (No activity noticed in this bioassay)”. For the same compound, the values for the mortality at 50 µg/cm2 in data set [3] and in data set [4] were 50 to 100% and 0%, respectively.
For `COc1ccc(-c2cccc(C(=O)Nc3ccc(-c4ncn(-c5ccc(OC(F)(F)F)cc5)n4)cc3)c2)c(C)c1` [F49, 4′-Methoxy-2′-methyl-N-(4-(1-(4-(trifluoromethoxy)phenyl)-1H-1,2,4-triazol-3-yl)phenyl)-[1,1′-biphenyl]-3-carboxamide], the “YFM % Control (or Mortality) rating” value in data set [1] was “B (More than 0-Less than 80)”. Besides, the mortality at 50 µg/cm2 in data set [3] and in data set [4] was 50 to 100% in each case.
For `COc1ccccc1-c1cccc(C(=O)NCCc2ccc(-c3ncn(-c4ccc(OC(F)(F)F)cc4)n3)cc2)c1` [F50, 2′-methoxy-N-(4-(1-(4-(trifluoromethoxy)phenyl)-1H-1,2,4-triazol-3-yl)phenethyl)-[1,1′-biphenyl]-3-carboxamide], the “YFM % Control (or Mortality) rating” value in data set [1] was “D (No activity noticed in this bioassay)”. Besides, the mortality at 50 µg/cm2 in data set [3] and in data set [4] was 50 to 100% in each case.
Turning to `O=C(NCCc1ccc(-c2ncn(-c3ccc(OC(F)(F)F)cc3)n2)cc1)c1ccc(F)c(-c2ccccc2)c1` [F51, 6-Fluoro-N-(4-(1-(4-(trifluoromethoxy)phenyl)-1H-1,2,4-triazol-3-yl)phenethyl)-[1,1′-biphenyl]-3-carboxamide], the “YFM % Control (or Mortality) rating” value in data set [1] was “D (No activity noticed in this bioassay)”. The mortality at 50 µg/cm2 in data set [3] was 0%; in data set [4] it was 50 to 100%.
Turning to `CN(C)c1ccccc1-c1cccc(C(=O)NCCc2ccc(-c3ncn(-c4ccc(OC(F)(F)F)cc4)n3)cc2)c1` [F52, 2′-(Dimethylamino)-N-(4-(1-(4-(trifluoromethoxy)phenyl)-1H-1,2,4-triazol-3-yl)phenethyl)-[1,1′-biphenyl]-3-carboxamide], the “YFM % Control (or Mortality) rating” value in data set [1] is “A (80-100)”. Further, the mortality at 50 µg/cm2 in data set [3] and in data set [4] was 50 to 100% each time.
As to `Cc1ccccc1-c1cc(C(=O)NCCc2ccc(-c3ncn(-c4ccc(OC(F)(F)F)cc4)n3)cc2)ccc1F` [F53, 6-Fluoro-2′-methyl-N-(4-(1-(4-(trifluoromethoxy)phenyl)-1H-1,2,4-triazol-3-yl)phenethyl)-[1,1′-biphenyl]-3-carboxamide], in data set [1], the “YFM % Control (or Mortality) rating” value is given as “A (80-100)”. In addition, the mortality at 50 µg/cm2 in data set [3] and in data set [4] was 50 to 100% in each case.
For `O=C(NCc1ccc(-c2ncn(-c3ccc(OC(F)(F)F)cc3)n2)cc1)c1cccc(-c2ccccc2)c1` [F57, N-(4-(1-(4-(trifluoromethoxy)phenyl)-1H-1,2,4-triazol-3-yl)benzyl)-[1,1′-biphenyl]-3-carboxamide], the “YFM % Control (or Mortality) rating” value in data set [1] is given as “D (No activity noticed in this bioassay)”. Further, the results for the mortality at 50 µg/cm2 in data set [3] and in data set [4] were 50 to 100% and 0%, respectively.
The corresponding values for `Cc1ccccc1-c1cc(C(=O)Nc2ccc(-c3ncn(-c4ccc(C(F)(F)F)cc4)n3)cc2)ccc1F` [F58, 6-Fluoro-2′-methyl-N-(4-(1-(4-(trifluoromethyl)phenyl)-1H-1,2,4-triazol-3-yl)phenyl)-[1,1′-biphenyl]-3-carboxamide] are “D (No activity noticed in this bioassay)”, 50 to 100% and 50 to 100%.
Regarding `COc1ccc(C(=O)Nc2ccc(-c3ncn(-c4ccc(C(F)(F)F)cc4)n3)cc2)cc1-c1ccccc1` [F61, 6-Methoxy-N-(4-(1-(4-(trifluoromethyl)phenyl)-1H-1,2,4-triazol-3-yl)phenyl)-[1,1′-biphenyl]-3-carboxamide], in data set [1], the “YFM % Control (or Mortality) rating” value is “A (80-100)”. Further, the mortality at 50 µg/cm2 in data set [3] and in data set [4] was 50 to 100% throughout.
Regarding `O=C(Nc1ccc(-c2ncn(-c3ccc(C(F)(F)F)cc3)n2)cc1)c1ccc(F)c(-c2ccccc2)c1` [F62, 6-Fluoro-N-(4-(1-(4-(trifluoromethyl)phenyl)-1H-1,2,4-triazol-3-yl)phenyl)-[1,1′-biphenyl]-3-carboxamide], in data set [1], the “YFM % Control (or Mortality) rating” value is “B (More than 0-Less than 80)”. Besides, the mortality at 50 µg/cm2 in data set [3] and in data set [4] was 50 to 100% throughout.
Regarding `CCN(C(=O)c1ccc(F)c(-c2ccccc2OC)c1)c1ccc(-c2ncn(-c3ccc(OC(F)(F)F)cc3)n2)cc1` [F64, N-Ethyl-6-fluoro-2′-methoxy-N-(4-(1-(4-(trifluoromethoxy)phenyl)-1H-1,2,4-triazol-3-yl)phenyl)-[1,1′-biphenyl]-3-carboxamide], the “YFM % Control (or Mortality) rating” value in data set [1] was “D (No activity noticed in this bioassay)”. In addition, the mortality at 50 µg/cm2 in data set [3] and in data set [4] was 50 to 100% in each case.
In the case of `CCCN(C(=O)c1ccc(F)c(-c2ccccc2OC)c1)c1ccc(-c2ncn(-c3ccc(OC(F)(F)F)cc3)n2)cc1` [F65, 6-Fluoro-2′-methoxy-N-propyl-N-(4-(1-(4-(trifluoromethoxy)phenyl)-1H-1,2,4-triazol-3-yl)phenyl)-[1,1′-biphenyl]-3-carboxamide], in data set [1], the “YFM % Control (or Mortality) rating” value is given as “D (No activity noticed in this bioassay)”. Moreover, the mortality at 50 µg/cm2 in data set [3] and in data set [4] was 50 to 100% each time.
Consider `COc1ccccc1-c1cc(C(=O)N(CC2CC2)c2ccc(-c3ncn(-c4ccc(OC(F)(F)F)cc4)n3)cc2)ccc1F` [F66, N-(cyclopropylmethyl)-6-fluoro-2′-methoxy-N-(4-(1-(4-(trifluoromethoxy)phenyl)-1H-1,2,4-triazol-3-yl)phenyl)-[1,1′-biphenyl]-3-carboxamide], for which the “YFM % Control (or Mortality) rating” value in data set [1] is recorded as “D (No activity noticed in this bioassay)”. Moreover, the mortality at 50 µg/cm2 in data set [3] and in data set [4] was 50 to 100% in each case.
With `COc1ccccc1-c1cc(C(=O)N(C(C)=O)c2ccc(-c3ncn(-c4ccc(OC(F)(F)F)cc4)n3)cc2)ccc1F` [F67, N-acetyl-6-fluoro-2′-methoxy-N-(4-(1-(4-(trifluoromethoxy)phenyl)-1H-1,2,4-triazol-3-yl)phenyl)-[1,1′-biphenyl]-3-carboxamide], the “YFM % Control (or Mortality) rating” value in data set [1] is on record as “A (80-100)”. The mortality at 50 µg/cm2 in data set [3] and in data set [4] was 50 to 100% in each case.
Regarding `O=C(Nc1ccc(-c2ncn(-c3ccc(C(F)(F)F)cc3)n2)cc1)c1ccccn1` [F68, N-(4-(1-(4-(trifluoromethyl)phenyl)-1H-1,2,4-triazol-3-yl)phenyl)picolinamide], the “YFM % Control (or Mortality) rating” value in data set [1] is on record as “D (No activity noticed in this bioassay)”. Besides, the mortality at 50 µg/cm2 in data set [3] is 0%; in data set [4], 0 to 50%.

(Values after patent US9550739B2, “Molecules having certain pesticidal utilities, and intermediates, compositions, and processes related thereto” (priority 2014, dated 2017).)
